# Data published in patent publication US8022091B2, “Triazole derivative” (Taisho Pharmaceutical Co., Ltd., priority 2006, dated 2011).
# Biological target: T1, human Edg-1 (S1P1) (Homo sapiens, UniProt P21453)
# T1 construct: expressed in transfected cells; host or cells: HEK-293
# Test: S1P1 binding assay: inhibition of [33P]-S1P binding to membrane fraction of HEK-293 cells transferred with the human Edg-1 (S1P1) gene
# Details: test compound 10 μM; inhibition of [33P]-S1P binding, membrane fraction
# Protocol: The membrane fraction was obtained by treating the cells with a solubilizing buffer (1 mM Tris/HCl, pH 7.2) for 10 minutes on ice, centrifuging at 1000×g for 5 minutes to remove insoluble fractions, and then centrifuging at 40000×g for 30 minutes at 4° C. The resulting membrane fraction was dissolved in a binding buffer (20 mM Tris-HCl, pH 7.4, 100 mM NaCl, 15 mM NaF, 2 mM deoxypyridoxine, 4 mg/mL fatty acid-free BSA), and then [^33P]-S1P (manufactured by ARC, final concentration 0.1 nM) and a DMSO solution (final concentration of the compound 10^−5M, final concentration of DMSO 0.1%) of the test compound were added. Thereafter, the mixture was stirred and then treated for one hour at 30° C. Using a harvester, the membrane fraction was harvested onto unifilter-96 GF/C filter (manufactured by Perkin Elmer), washing was carried out four times with the binding buffer, and the filter was dried. Twenty five μL Microscint 0 (manufactured by Perkin Elmer) was added, and radioactivity was measured using Top Count NXT (manufactured by Packard) to calculate the amount (A) of [^33P]-S1P bound to the membrane fraction at the time when the compound was added.
# The same procedure was carried out in the absence of the test compound, and the amount (B) of [^33P]-S1P bound was calculated. Further, the same procedure was carried out in the absence of the test compound by use of HEK-293 cells to which no Edg-1 (S1P1) gene was introduced, and the background amount (C) of [^33P]-S1P bound was calculated.
# Inhibition rate (%)=[1−(A−C)/(B−C)]×100
# Further, concentrations (IC50) at the time when binding in the absence of the test compound was inhibited by 50% were calculated. The membrane system binding assay was carried out in the presence of test compounds with various concentrations, and the Edg-1 (S1P1) binding inhibition rates were calculated using the equation above. Then, IC50 values were calculated using Origin (Lightstone Corp.), a software for data analysis.
# T1 sequence (P21453 whole entry): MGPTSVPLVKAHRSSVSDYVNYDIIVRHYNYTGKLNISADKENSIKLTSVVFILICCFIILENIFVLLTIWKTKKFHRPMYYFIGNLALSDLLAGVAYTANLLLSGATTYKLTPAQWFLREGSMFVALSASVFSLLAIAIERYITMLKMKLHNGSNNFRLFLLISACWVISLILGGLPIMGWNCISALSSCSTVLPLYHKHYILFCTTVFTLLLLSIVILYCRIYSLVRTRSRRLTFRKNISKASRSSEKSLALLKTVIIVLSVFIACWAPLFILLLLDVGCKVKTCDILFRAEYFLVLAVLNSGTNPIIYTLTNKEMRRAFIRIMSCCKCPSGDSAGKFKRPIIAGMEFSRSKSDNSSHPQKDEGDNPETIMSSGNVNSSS
row,inhibition at 10 µM,Structure (SMILES)
1,84.7%,CCn1c(Oc2ccc3cc[nH]c3c2)nnc1[C@@H](C)NS(=O)(=O)c1ccc(Cl)cc1Cl [Compound 398]
2,92.3%,CCn1c(Oc2ccc3cc[nH]c3c2)nnc1[C@@H](C)NS(=O)(=O)c1c(C)cc(Cl)cc1Cl [Compound 426]
3,66%,CCn1c(Oc2ccc3cc[nH]c3c2)nnc1[C@@H](C)NS(=O)(=O)c1csc2ccccc12 [Compound 494]
4,84.2%,CCn1c(Oc2ccc3cc[nH]c3c2)nnc1[C@@H](C)NS(=O)(=O)c1ccc(F)c(C#N)c1 [Compound 432]
5,89.2%,CCn1c(Oc2cccc(N3CCN(C)CC3)c2)nnc1[C@@H](C)NS(=O)(=O)c1cc(F)c(F)cc1Cl [Compound 580]
6,67.5%,CCn1c(Oc2ccc3cc[nH]c3c2)nnc1[C@@H](C)NS(=O)(=O)c1c(F)cc(F)cc1Br [Compound 436]
7,83.1%,CCn1c(Oc2ccc3cc[nH]c3c2)nnc1[C@@H](C)NS(=O)(=O)c1cc(C(F)(F)F)ccc1Cl [Compound 422]
8,95.5%,CCn1c(Oc2ccc3cc[nH]c3c2)nnc1[C@@H](C)NS(=O)(=O)c1ccc(Br)c(F)c1 [Compound 447]
9,84%,CCn1c(Oc2cccc(N3CCN(C)CC3)c2)nnc1[C@@H](C)NS(=O)(=O)c1cc(Cl)ccc1OC [Compound 594]
10,100%,CCn1c(Oc2cccc(N3CCN(C)CC3)c2)nnc1[C@@H](C)NS(=O)(=O)c1ccc(F)c(C#N)c1 [Compound 601]

# Same assay, conditions: test compound at 10 μM; inhibition of [33P]-S1P binding to the membrane fraction of HEK-293 cells expressing human Edg-1 (S1P1)
row,inhibition at 10 µM,Structure (SMILES)
1,74.6%,CCn1c(Oc2ccc(F)cc2)nnc1[C@@H](C)NS(=O)(=O)c1ccc(C(C)(C)C)cc1 [Compound 157]
2,104%,CCn1c(Oc2ccc(F)cc2)nnc1[C@@H](C)NS(=O)(=O)c1ccc(C)c(F)c1 [Compound 272]
3,108%,CCn1c(Oc2ccc(F)cc2)nnc1[C@@H](C)NS(=O)(=O)c1ccc(Cl)c(Cl)c1Cl [Compound 207]
4,106%,CCn1c(Oc2ccc(F)cc2)nnc1[C@@H](C)NS(=O)(=O)c1ccc2c(c1)OCCO2 [Compound 289]
5,75.1%,CCn1c(Oc2ccc(F)cc2)nnc1[C@@H](C)NS(=O)(=O)c1cc(Cl)ccc1OC [Compound 254]
6,78.2%,CCn1c(Oc2ccc(F)cc2)nnc1[C@@H](C)NS(=O)(=O)c1cc(Br)ccc1Br [Compound 257]
7,59.9%,CCn1c(Oc2ccc(F)cc2)nnc1[C@@H](C)NS(=O)(=O)c1ccccc1 [Compound 155]
8,92.3%,CCn1c(Oc2ccc(F)cc2)nnc1[C@@H](C)NS(=O)(=O)c1ccc(C(C)=O)cc1 [Compound 154]
9,99.7%,CCn1c(Oc2ccc(F)cc2)nnc1[C@@H](C)NS(=O)(=O)c1ccccc1C [Compound 189]
10,57.1%,CCn1c(Oc2ccc(F)cc2)nnc1[C@@H](C)NS(=O)(=O)c1cc(C(F)(F)F)ccc1Br [Compound 271]
11,94.4%,CCn1c(Oc2ccc(F)cc2)nnc1[C@@H](C)NS(=O)(=O)c1ccc(C)c(Cl)c1 [Compound 127]
12,59%,CCn1c(Oc2ccc(F)cc2)nnc1[C@@H](C)NS(=O)(=O)c1cc(C(F)(F)F)ccc1Cl [Compound 251]
13,91.5%,CCn1c(Oc2ccc(F)cc2)nnc1[C@@H](C)NS(=O)(=O)c1ccc(F)cc1Br [Compound 269]
14,87.5%,CCn1c(Oc2ccc3cc[nH]c3c2)nnc1[C@@H](C)NS(=O)(=O)c1cccc(C)c1 [Compound 364]
15,65.1%,CCn1c(Oc2ccc(F)cc2)nnc1[C@@H](C)NS(=O)(=O)c1cccc(Cl)c1 [Compound 231]
16,94.4%,CCn1c(Oc2ccc(F)cc2)nnc1[C@@H](C)NS(=O)(=O)c1ccc(F)c2ccccc12 [Compound 307]
17,78.9%,CCn1c(Oc2ccc(F)cc2)nnc1[C@@H](C)NS(=O)(=O)c1ccc(Br)c(C(F)(F)F)c1 [Compound 318]
18,100%,CCn1c(Oc2ccc3cc[nH]c3c2)nnc1[C@@H](C)NS(=O)(=O)c1cc(C)c(Cl)cc1C [Compound 340]
